In patent US11414404B2, “Compounds for the treatment of BRAF-associated diseases and disorders” (Array BioPharma Inc., priority 2019, dated 2022):

Tests used:
[1] = MDR1 LLC-PK1 and BCRP MDCKII permeability assay: permeability coefficient (Papp)
BCRP = BCRP (Homo sapiens (Human), UniProt Q9UNQ0); assay: BCRP MDCKII permeability assay: efflux ratio; details: dog
Protocol: BCRP transfected MDCKII cells were cultured and plated according to manufacturer's recommendations. Assay conditions included with and without the BCRP-specific inhibitor, K0143, at a concentration of 0.3 μM to ascertain the contribution of BCRP to the efflux value of the test compound.
Both positive and negative controls were used to assess functionality of P-gp or BCRP efflux in the assays. […] Final organic concentration in the assay was 1%. All dosing solutions contained 10 μM lucifer yellow to monitor LLC-PK1 or MDCKII cell monolayer integrity.
For the apical to basolateral determination (A to B), 75 μL of the test article in transport buffer were added to the apical side of the individual transwells and 250 μL of basolateral media, without compound or lucifer yellow, were added to each well. For the basolateral to apical determination (B to A), 250 μL of test article in transport buffer were added to each well and 75 μL transport buffer, without compound or lucifer yellow, were added to each transwell. All tests were performed in triplicate, and each compound was tested for both apical to basolateral and basolateral to apical transport. The plates were incubated for 2 hours on a Lab-Line Instruments Titer Orbital Shaker (VWR, West Chester, Pa.) at 50 rpm and 37° C. with 5% CO2. All culture plates were removed from the incubator and 50 μL of media were removed from the apical and basolateral portion of each well and added to 150 μL of 1 μM labetalol in 2:1 acetonitrile (acetonitrile): H2O, v/v.
These values were accepted when found to be below 2% for apical to basolateral and 5% basolateral to apical flux across the MDR1-transfected LLC-PK1 or BCRP-transfected MDCKII cell monolayers. The plates were sealed and the contents of each well analyzed by LC-MS/MS. The compound concentrations were determined from the ratio of the peak areas of the compound to the internal standard (labetalol) in comparison to the dosing solution.
The LC-MS/MS system was comprised of an HTS-PAL autosampler (Leap Technologies, Carrboro, N.C.), an HP1200 HPLC (Agilent, Palo Alto, Calif.), and a MDS Sciex 4000 Q Trap system (Applied Biosystems, Foster City, Calif.). […] The total run time, including re-equilibration, for a single injection was 1.2 minutes. Mass spectrometric detection of the analytes was accomplished using the ion spray positive mode.
An efflux ratio is calculated from the mean apical to basolateral (A−B) Papp data and basolateral to apical (B−A) Papp data: Efflux ratio=Papp(B−A)/Papp(A−B)

[2] = target: full-length FLAG-tagged B-Raf(V600E) (Homo sapiens (Human), UniProt P15056, V600E); assay: BRAF V600E enzyme assay (TR-FRET competitive displacement of fluorescent tracer); format: binding; details: averaged IC50; 60 min at ambient temperature; 11-point dosing, top dose 10 μM
full-length FLAG-tagged B-Raf(V600E), sequence (P15056 whole entry V600E): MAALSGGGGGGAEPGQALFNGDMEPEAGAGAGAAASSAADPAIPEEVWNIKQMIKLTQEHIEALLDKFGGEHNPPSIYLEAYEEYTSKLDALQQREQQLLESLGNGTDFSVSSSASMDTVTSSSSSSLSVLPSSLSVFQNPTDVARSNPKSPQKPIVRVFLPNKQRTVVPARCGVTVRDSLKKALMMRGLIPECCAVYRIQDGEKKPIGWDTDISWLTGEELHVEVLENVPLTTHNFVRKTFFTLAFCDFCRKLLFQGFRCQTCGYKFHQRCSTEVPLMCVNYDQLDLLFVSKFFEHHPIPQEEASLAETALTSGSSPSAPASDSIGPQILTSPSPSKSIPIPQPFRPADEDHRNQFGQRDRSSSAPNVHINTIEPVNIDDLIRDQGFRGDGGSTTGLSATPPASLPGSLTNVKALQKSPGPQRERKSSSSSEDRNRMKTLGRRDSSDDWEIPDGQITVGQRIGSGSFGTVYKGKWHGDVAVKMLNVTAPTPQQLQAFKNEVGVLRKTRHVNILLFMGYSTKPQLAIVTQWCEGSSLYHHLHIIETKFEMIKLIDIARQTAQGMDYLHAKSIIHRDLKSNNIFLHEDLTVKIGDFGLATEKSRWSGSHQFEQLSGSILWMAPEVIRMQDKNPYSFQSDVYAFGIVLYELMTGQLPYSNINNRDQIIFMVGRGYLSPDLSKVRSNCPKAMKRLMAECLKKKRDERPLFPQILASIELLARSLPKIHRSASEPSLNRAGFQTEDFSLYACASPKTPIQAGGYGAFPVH
Text: A competitive displacement assay was configured for B-Raf that monitors the amount of a fluorescently-tagged “tracer” bound to B-Raf via TR-FRET from an anti-tag Eu-labeled antibody also bound to B-Raf.
[formula] • where: • Xmax Average Uninhibited Controls • Xmin Average Background
A 4-parameter logistic model was the fit to the POC data for each compound.

P-gp (MDR1) = P-gp (MDR1) (Homo sapiens (Human), UniProt P08183); assay: MDR1 LLC-PK1 permeability assay: efflux ratio; details: pig, LLC-PK1
P-gp (MDR1), sequence (P08183 whole entry, species assumed): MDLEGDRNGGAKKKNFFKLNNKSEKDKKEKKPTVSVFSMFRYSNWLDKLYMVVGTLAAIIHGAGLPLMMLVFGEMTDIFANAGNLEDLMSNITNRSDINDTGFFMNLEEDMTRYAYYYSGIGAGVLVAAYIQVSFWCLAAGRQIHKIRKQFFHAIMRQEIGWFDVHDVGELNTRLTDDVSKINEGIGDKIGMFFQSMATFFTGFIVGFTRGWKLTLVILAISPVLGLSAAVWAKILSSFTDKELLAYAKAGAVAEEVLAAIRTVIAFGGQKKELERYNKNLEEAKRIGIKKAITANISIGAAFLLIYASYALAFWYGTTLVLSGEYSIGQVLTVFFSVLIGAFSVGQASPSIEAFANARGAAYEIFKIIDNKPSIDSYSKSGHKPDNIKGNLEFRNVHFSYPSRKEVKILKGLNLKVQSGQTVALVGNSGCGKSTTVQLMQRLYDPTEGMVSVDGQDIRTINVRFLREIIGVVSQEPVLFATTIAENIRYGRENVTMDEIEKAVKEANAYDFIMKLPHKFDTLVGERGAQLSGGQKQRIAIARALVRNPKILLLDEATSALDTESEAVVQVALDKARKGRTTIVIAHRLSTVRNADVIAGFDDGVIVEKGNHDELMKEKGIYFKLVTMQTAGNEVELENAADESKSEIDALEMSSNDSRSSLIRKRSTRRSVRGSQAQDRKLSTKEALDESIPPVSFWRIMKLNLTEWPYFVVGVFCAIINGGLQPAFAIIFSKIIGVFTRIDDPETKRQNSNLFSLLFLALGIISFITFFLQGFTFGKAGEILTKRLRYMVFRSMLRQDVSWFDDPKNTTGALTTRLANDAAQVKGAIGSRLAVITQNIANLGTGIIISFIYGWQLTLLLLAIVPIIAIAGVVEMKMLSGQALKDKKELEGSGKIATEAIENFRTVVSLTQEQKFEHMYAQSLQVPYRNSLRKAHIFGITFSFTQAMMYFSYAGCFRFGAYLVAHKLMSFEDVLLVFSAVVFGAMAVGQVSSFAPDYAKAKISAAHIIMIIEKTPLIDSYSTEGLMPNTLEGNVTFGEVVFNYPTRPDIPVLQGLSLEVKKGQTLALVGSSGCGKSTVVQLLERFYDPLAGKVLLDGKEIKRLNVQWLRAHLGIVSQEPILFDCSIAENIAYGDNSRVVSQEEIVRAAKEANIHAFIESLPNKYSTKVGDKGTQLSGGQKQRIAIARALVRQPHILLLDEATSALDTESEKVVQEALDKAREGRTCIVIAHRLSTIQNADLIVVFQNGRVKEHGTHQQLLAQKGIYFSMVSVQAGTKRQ

[3] = PK (free brain-to-free plasma ratio) (mouse); format: in vivo; details: mouse; unbound brain-to-unbound plasma concentration ratio; male CD-1 mice; oral gavage 10 mg/kg; sampling 2-24 hours; read-out: B/P ratio (free)
Protocol: PK (Free Brain-to-Free Plasma Ratio) (Mouse)
The ability of representative compounds to penetrate the BBB in mice was determined by evaluating the unbound brain-to-unbound plasma (also referred to as free brain-to-free plasma) concentration ratio in male CD-1 mice.
Brain samples were stored at −20±5° C. prior to analysis. Concentrations of test compound in mouse brain homogenate were determined by liquid chromatography tandem mass spectrometry (LC-MS/MS) following protein precipitation with acetonitrile. A 12-point calibration curve, ranging from 0.5 to 10,000 ng/mL, was prepared in duplicate. A solution of 400 μg/mL of test compound in dimethyl sulfoxide (DMSO) was serially diluted (3-fold) in 100% DMSO, and then 2.5 μL of each standard solution was added to 100 μL of naïve male CD-1 mice brain homogenate. To mimic the extraction in the standard curve, 2.5 μL of DMSO was added to all test samples. Both calibration and test brain homogenate samples were spiked with 10 μL of an IS (1 μg/mL of a structural analog). Brain homogenate was generated by adding 0.75 mL of 4:1 water:MeOH to each brain sample followed by homogenization for 1 minute with bead beater tubes a 6 m/s using an MP Fast Prep-24®. Proteins were precipitated from 100 μL of brain homogenate sample by the addition of 300 μL of acetonitrile. […] A 100 μL aliquot of each supernatant was transferred via a 550 μL Personal Pipettor (Apricot Designs, Monrovia, Calif.) to 96-well plates and diluted 1:1 with HPLC grade water. The resulting plates were sealed with aluminum for LC-MS/MS analysis.
Brain-to-plasma ratios were calculated using the concentration of compound measured in the brain divided by the concentration of compound measured in the plasma. Brain-to-plasma ratios were always generated from a single animal and time point. Free brain-to-free plasma ratios were calculated by multiplying the brain-to-plasma ratio by the in vitro brain homogenate free fraction divided by the in vitro plasma free fraction using the following equation: (B/P)*(Bfu/Pfu).

BCRP, sequence (Q9UNQ0 whole entry, species assumed): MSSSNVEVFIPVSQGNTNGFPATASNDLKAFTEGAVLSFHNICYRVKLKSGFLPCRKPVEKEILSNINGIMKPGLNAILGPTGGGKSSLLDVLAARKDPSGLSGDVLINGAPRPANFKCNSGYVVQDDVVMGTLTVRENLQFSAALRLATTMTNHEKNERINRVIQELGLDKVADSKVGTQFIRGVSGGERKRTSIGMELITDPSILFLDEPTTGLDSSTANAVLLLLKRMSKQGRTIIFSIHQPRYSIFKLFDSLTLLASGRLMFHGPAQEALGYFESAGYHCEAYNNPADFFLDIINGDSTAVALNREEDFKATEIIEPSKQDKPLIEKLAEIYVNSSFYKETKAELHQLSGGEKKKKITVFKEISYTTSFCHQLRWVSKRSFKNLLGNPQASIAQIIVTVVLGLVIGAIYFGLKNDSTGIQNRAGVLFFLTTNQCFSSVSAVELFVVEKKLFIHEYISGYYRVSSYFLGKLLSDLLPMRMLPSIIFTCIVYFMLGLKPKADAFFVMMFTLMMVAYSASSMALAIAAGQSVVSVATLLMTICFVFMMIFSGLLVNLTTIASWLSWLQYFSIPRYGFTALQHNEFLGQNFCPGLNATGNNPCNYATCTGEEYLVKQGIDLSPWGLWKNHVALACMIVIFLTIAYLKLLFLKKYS

| SMILES | Papp at 2 h, 1 µM [1] [×10⁻⁶ cm/s] | efflux ratio at 2 h, 1 µM (BCRP) | IC50 [2] [nM] | efflux ratio at 2 h, 1 µM (P-gp (MDR1)) | Kp,uu (unbound brain/unbound plasma ratio) [3] |
| --- | --- | --- | --- | --- | --- |
| CCCS(=O)(=O)Nc1ccc(F)c(Nc2ccc3ncn(CC(F)(F)F)c(=O)c3c2C)c1Cl [Example 59, N-(2-chloro-4-fluoro-3-((5-methyl-4-oxo-3-(2,2,2-trifluoroethyl)-3,4-dihydroquinazolin-6-yl)amino)phenyl)propane-1-sulfonamide] | 25.1 | 1.08 | 3.4 | 1.36 |  |
| C#Cc1c(Nc2c(F)ccc(NS(=O)(=O)CCC)c2Cl)ccc2ncn(C)c(=O)c12 [Example 60, N-(2-chloro-3-((5-ethynyl-3-methyl-4-oxo-3,4-dihydroquinazolin-6-yl)amino)-4-fluorophenyl)propane-1-sulfonamide] | 29 | 2.35 | 9.25 | 2.3 |  |
| CCC(C)S(=O)(=O)Nc1ccc(F)c(Nc2ccc3ncn(C)c(=O)c3c2C)c1Cl (centres unmarked) [Example 61, N-(2-chloro-3-((3,5-dimethyl-4-oxo-3,4-dihydroquinazolin-6-yl)amino)-4-fluorophenyl)butane-2-sulfonamide] | 26.6 | 0.84 | 97.7 | 1.2 |  |
| CCCS(=O)(=O)Nc1ncc(F)c(Oc2ccc3ncn(C)c(=O)c3c2C)c1F [Example 62, N-(4-((3,5-dimethyl-4-oxo-3,4-dihydroquinazolin-6-yl)oxy)-3,5-difluoropyridin-2-yl)propane-1-sulfonamide] | 26.3 | 22.5 | 15.8 | 2.3 |  |
| Cc1c(Oc2c(F)cnc(NS(=O)(=O)CCCF)c2F)ccc2ncn(C)c(=O)c12 [Example 64, N-(4-((3,5-dimethyl-4-oxo-3,4-dihydroquinazolin-6-yl)oxy)-3,5-difluoropyridin-2-yl)-3-fluoropropane-1-sulfonamide] | 9.78 | 31 | 10.4 | 10.9 |  |
| CCCS(=O)(=O)Nc1ccc(F)c(Sc2ccc3ncn(C)c(=O)c3c2C)c1Cl [Example 65, N-(2-chloro-3-((3,5-dimethyl-4-oxo-3,4-dihydroquinazolin-6-yl)thio)-4-fluorophenyl)propane-1-sulfonamide] | 177 | 0.9 | 92.4 | 1.4 |  |
| CCCS(=O)(=O)Nc1cccc(Oc2ccc3ncn(C)c(=O)c3c2C)c1C#N [Example 66, N-{2-Cyano-3-[(3,5-dimethyl-4-oxo-3,4-dihydroquinazolin-6-yl)oxy]phenyl}propane-1-sulfonamide] | 23.1 | 27.9 | 4.08 | 1.7 |  |
| CCCS(=O)(=O)Nc1cccc(Oc2ccc3ncn(C)c(=O)c3c2C)c1F [Example 68, N-(3-((3,5-dimethyl-4-oxo-3,4-dihydroquinazolin-6-yl)oxy)-2-fluorophenyl)propane-1-sulfonamide] | 28.5 | 1.3 | 33 | 1.2 |  |
| CCCS(=O)(=O)Nc1ccc(F)c(Oc2ccc3ncn(C)c(=O)c3c2C)c1C#N [Example 69, N-(2-cyano-3-((3,5-dimethyl-4-oxo-3,4-dihydroquinazolin-6-yl)oxy)-4-fluorophenyl)propane-1-sulfonamide] | 24.4 | 23.8 | 0.46 | 4.1 |  |
| CCCS(=O)(=O)Nc1cc(Cl)cc(Oc2ccc3ncn(C)c(=O)c3c2C)c1F [Example 70, N-(5-chloro-3-((3,5-dimethyl-4-oxo-3,4-dihydroquinazolin-6-yl)oxy)-2-fluorophenyl) propane-1-sulfonamide] | 19.1 | 1.17 | 2.55 | 1.73 |  |
| CCCS(=O)(=O)Nc1ccc(F)c(Oc2ccc3ncn(C)c(=O)c3c2C)c1F [Example 71, N-(3-((3,5-dimethyl-4-oxo-3,4-dihydroquinazolin-6-yl)oxy)-2,4-difluorophenyl)propane-1-sulfonamide] | 25.1 | 0.86 | 16.4 | 2.4 |  |
| CCCS(=O)(=O)Nc1cc(F)c(F)c(Oc2ccc3ncn(C)c(=O)c3c2C)c1F [Example 72, N-(3-((3,5-dimethyl-4-oxo-3,4-dihydroquinazolin-6-yl)oxy)-2,4,5-trifluorophenyl)propane-1-sulfonamide] | 25.6 | 1.81 | 7.7 | 1.86 |  |
| CCCS(=O)(=O)Nc1cc(F)c(F)c(Oc2ccc3ncn(C)c(=O)c3c2C)c1Cl [Example 73, N-(2-chloro-3-((3,5-dimethyl-4-oxo-3,4-dihydroquinazolin-6-yl)oxy)-4,5-difluorophenyl)propane-1-sulfonamide] | 47.5 | 0.3 | 1.55 | 0.93 |  |
| CCCS(=O)(=O)Nc1cc(F)cc(Oc2ccc3ncn(C)c(=O)c3c2C)c1Cl [Example 74, N-(2-chloro-3-((3,5-dimethyl-4-oxo-3,4-dihydroquinazolin-6-yl)oxy)-5-fluorophenyl)propane-1-sulfonamide] | 28.4 | 0.92 | 3.55 | 1.13 |  |
| CCCS(=O)(=O)Nc1cc(C)cc(Oc2ccc3ncn(C)c(=O)c3c2C)c1F [Example 75, N-(3-((3,5-dimethyl-4-oxo-3,4-dihydroquinazolin-6-yl)oxy)-2-fluoro-5-methylphenyl)propane-1-sulfonamide] | 21.5 | 0.73 | 74.8 | 1.57 |  |
| CCCS(=O)(=O)Nc1cc(F)cc(Oc2ccc3ncn(C)c(=O)c3c2C)c1F [Example 76, N-(3-((3,5-dimethyl-4-oxo-3,4-dihydroquinazolin-6-yl)oxy)-2,5-difluorophenyl)propane-1-sulfonamide] | 31.8 | 1.26 | 5.1 | 1.45 |  |
| Cc1c(Oc2cc(F)cc(NS(=O)(=O)CCCF)c2F)ccc2ncn(C)c(=O)c12 [Example 77, N-(3-((3,5-dimethyl-4-oxo-3,4-dihydroquinazolin-6-yl)oxy)-2,5-difluorophenyl)-3-fluoropropane-1-sulfonamide] | 25.6 | 4.24 | 4.25 | 1.91 |  |
| CCCS(=O)(=O)Nc1cccc(Oc2ccc3ncn(C)c(=O)c3c2C)c1Cl [Example 78, N-(2-chloro-3-((3,5-dimethyl-4-oxo-3,4-dihydroquinazolin-6-yl)oxy)phenyl)propane-1-sulfonamide] | 29 | 0.96 | 10.8 | 1.16 |  |
| Cc1c(Oc2cccc(NS(=O)(=O)CCCF)c2Cl)ccc2ncn(C)c(=O)c12 [Example 79, N-(2-chloro-3-((3,5-dimethyl-4-oxo-3,4-dihydroquinazolin-6-yl)oxy)phenyl)-3-fluoropropane-1-sulfonamide] | 23.1 | 1.06 | 8.55 | 2.14 |  |
| Cc1c(Oc2cccc(NS(=O)(=O)CCCF)c2F)ccc2ncn(C)c(=O)c12 [Example 80, N-(3-((3,5-dimethyl-4-oxo-3,4-dihydroquinazolin-6-yl)oxy)-2-fluorophenyl)-3-fluoropropane-1-sulfonamide] | 42.5 | 2.03 | 20.8 | 1.3 |  |
| Cn1cnc2ccc(Nc3c(F)ccc(NS(=O)(=O)CCCF)c3Cl)c(Cl)c2c1=O [WO 2012/118492 Ex. 37, reference compound] |  | 8.6 |  | 1.9 | 0.12 to 0.15 |
| Cn1cnc2ccc(Nc3c(F)ccc(NS(=O)(=O)CCCF)c3Cl)cc2c1=O [WO 2012/118492 Example 34, reference compound] |  | 7.68 |  | 8.89 | 0.08 to 0.14 |
